From patent US20140154317A1, “Pharmaceutical Composition for Treatment of Helicobacter Pylori Associated Diseases” (priority 2012, published 2014)

Experiments:
[1] = system: CXCR4; assay: CXCR4 protein expression, Western blot of whole-cell extracts of gastric cancer cells; type: cell-based; settings: 5.0 μm, 6 h, line not given
Experimental: Different tumor cell types, namely gastric cancer (AGS, MKN45, and SNU16) cells were incubated with different components of the composition as well as a combination according to the finished product for 6 h. Whole-cell extracts were prepared and analyzed by Western blot analysis using antibody against CXCR4. The same blots were stripped and reprobed with β-actin antibody to show equal protein loading. Representative results of three independent experiments are shown.
The same experiment was carried out to find out whether the composition downregulates expression of CXCR4 in gastric (AGS, MKN45, and SNU16) cancer cell lines, which has never been investigated before. Cells were treated with 5 μm active ingredients of Ex. 6 and its major active components for 6 h before assessing the resultant effect on CXCR4 expression.
(A) MDA-MB-231 (2×10^5 cells) were seeded in the top-chamber of the Matrigel. After pre-incubation with or without the composition according to Ex. 6 and its major active components (5 μm) for 6 h, transwell chambers were then placed into the wells of a 24-well plate, in which we had added either the basal medium only or basal medium containing 10 ng/ml CXCL12 for 24 h. After incubation, they were assessed for cell invasion. Columns indicate mean percentage of invaded cells; bars, S.E. *, […]. (B) AGS (2×10^5 cells) were seeded in the top-chamber of the Matrigel. After preincubation with or without the composition and its major active components (5 μm) for 6 h, transwell chambers were then placed into the wells of a 24-well plate, in which we had added either the basal medium only or basal medium containing […] CXCL12 for 24 h. After incubation, the chambers were assessed for cell invasion. Columns indicate mean percentage of invaded cells; bars, S.E. *, […]. Representative results of three independent experiments are shown. […] Total RNA was isolated and analyzed by RT-PCR assay. […] Whole-cell extracts were prepared and analyzed by Western blot analysis using antibodies against CXCR4. […]

[2] = system: CXCR4 mRNA; assay: CXCR4 mRNA expression by RT-PCR in AGS cells; type: cell-based; settings: 5 μm
Experimental: (§1) (A) MDA-MB-231 (2×10^5 cells) were seeded in the top-chamber of the Matrigel. After pre-incubation with or without the composition according to Ex. 6 and its major active components (5 μm) for 6 h, transwell chambers were then placed into the wells of a 24-well plate, in which we had added either the basal medium only or basal medium containing 10 ng/ml CXCL12 for 24 h. After incubation, they were assessed for cell invasion. Columns indicate mean percentage of invaded cells; bars, S.E. *, P>0.05. (B) AGS (2×10^5 cells) were seeded in the top-chamber of the Matrigel. After preincubation with or without the composition and its major active components (5 μm) for 6 h, transwell chambers were then placed into the wells of a 24-well plate, in which we had added either the basal medium only or basal medium containing 100 ng/ml CXCL12 for 24 h. After incubation, the chambers were assessed for cell invasion. Columns indicate mean percentage of invaded cells; bars, S.E. *, P>0.05. Representative results of three independent experiments are shown. […] AGS cells were treated with 5 μm of the composition and its major active components for indicated times. Total RNA was isolated and analyzed by RT-PCR assay. […] Representative results of three independent experiments are shown. […] Cells were incubated with 5 μm of the active ingredients of the composition and its single major active components for indicated times. Whole-cell extracts were prepared and analyzed by Western blot analysis using antibodies against CXCR4. The same blots were stripped and reprobed with β-actin antibody to show equal protein loading. Representative results of three independent experiments are shown.

[3] = system: AGS cells; assay: Matrigel transwell invasion assay with CXCL12, AGS; type: cell-based; settings: 5 μm, cell line not given
Experimental: as §1, with “[…],” for “After preincubation with or without the composition and its major active components (5 μm) for 6 h,”, “which we had added either the basal medium only or basal medium containing 100 ng/ml CXCL12 for 24 h.” left out

[4] = system: CXCR4; assay: CXCR4 protein expression, Western blot of whole-cell extracts of gastric cancer cells; type: cell-based; settings: 6 h, line not given
[5] = cited from earlier work
[6] = system: gram positive and gram negative, aerobic, and anaerobic bacteria; settings: in vivo or in vitro; cited from earlier work

Row | Compound | Fold change (CXCR4 expression) [1] | mRNA fold change (CXCR4) ([2]; time 0 hours) | mRNA fold change (CXCR4) ([2]; time 2 hours) | mRNA fold change (CXCR4) ([2]; time 6 hours) | mRNA fold change (CXCR4) ([2]; time 8 hours) | mRNA fold change (CXCR4) ([2]; time 12 hours) | mRNA fold change (CXCR4) ([2]; time 24 hours) | Percentage of invade cells ([3]; time 0 hours) [%] | Percentage of invade cells ([3]; time 2 hours) [%] | Percentage of invade cells ([3]; time 6 hours) [%] | Percentage of invade cells ([3]; time 8 hours) [%] | Percentage of invade cells ([3]; time 12 hours) [%] | Percentage of invade cells ([3]; time 24 hours) [%] | Fold change (CXCR4 expression) ([4]; 0.5 μm) | Fold change (CXCR4 expression) ([4]; 1.0 μm) | Fold change (CXCR4 expression) ([4]; 2.5 μm) | cumulative dose shown safe and well tolerated ([5]; cumulative doses) [g] | systemic dose shown safe and well tolerated ([5]; systemic doses) | Resistance (in words) [6]
1 | CC[C@H]1OC(=O)[C@H](C)[C@@H](O[C@H]2C[C@@](C)(OC)[C@@H](O)[C@H](C)O2)[C@H](C)[C@@H](O[C@@H]2O[C@H](C)C[C@H](N(C)C)[C@H]2O)[C@](C)(OC)C[C@@H](C)C(=O)[C@H](C)[C@@H](O)[C@]1(C)O [CLR, clarithromycin] | 0.44 ± 0.01 | 0.90 ± 0.05 | 0.78 ± 0.02 | 0.63 ± 0.03 | 0.50 ± 0.03 | 0.42 ± 0.03 | 0.37 ± 0.03 | 85.23 ± 11.51 | 80.22 ± 10.25 | 77.26 ± 9.14 | 62.27 ± 6.50 | 55.20 ± 7.10 | 48.20 ± 6.15 | 1.3 ± 0.01 | 0.97 ± 0.01 | 0.79 ± 0.04 |  |  | 
2 | COc1ccc2[nH]c([S+]([O-])Cc3ncc(C)c(OC)c3C)nc2c1 (stereo not drawn) [PPI, Omeprazol] | 0.46 ± 0.02 | 0.92 ± 0.02 | 0.88 ± 0.021 | 0.67 ± 0.06 | 0.54 ± 0.04 | 0.41 ± 0.04 | 0.38 ± 0.04 | 85.23 ± 11.51 | 82.10 ± 15.10 | 74.11 ± 6.25 | 60.12 ± 11.50 | 49.25 ± 7.26 | 39.25 ± 4.15 | 1.4 ± 0.02 | 0.96 ± 0.03 | 0.81 ± 0.05 |  |  | 
3 | O=S1(=O)CCN(CN2CCS(=O)(=O)NC2)CN1 [Taurolidine, [bis(1,1-dioxoperhydro-1,2,4-thiadiazinyl-4)]-methane] |  |  |  |  |  |  |  |  |  |  |  |  |  |  |  |  | ≥ 300 | exceeding 40 g/day | has not been observed
4 | CCS(=O)(=O)CCn1c([N+](=O)[O-])cnc1C [TND, tinidazole] | 0.53 ± 0.03 | 0.94 ± 0.02 | 0.83 ± 0.01 | 0.79 ± 0.04 | 0.65 ± 0.03 | 0.51 ± 0.03 | 0.39 ± 0.03 | 85.23 ± 11.51 | 81.10 ± 14.20 | 72.55 ± 8.10 | 64.65 ± 10.11 | 51.33 ± 8.20 | 42.25 ± 8.55 | 1.4 ± 0.01 | 0.98 ± 0.01 | 0.85 ± 0.01 |  |  | 
